{"source": "patent US20110207807A1", "about": "“NEW USE FOR HOMOISOFLAVONE OR A SALT THEREOF” (Catholic University Industry Academy Cooperation Foundation, priority 2008, published 2011)", "key": {"cPLA2": {"test_system": "cPLA2", "assay": "UV-induced cPLA2 phosphorylation in HaCaT cells (Western blot)", "format": "cell-based, human", "conditions": "1 μg/mL, UV (FIG. 2b)", "procedure": "In order to identify the intracellular factors affecting COX-2 expression that are affected by homoisoflavanone, Western blotting was carried out in the same manner as in Example 2-1 except for treating with homoisoflavanone at 1 μg/mL, irradiating UV for 45 minutes and using rabbit anti-p-cytosolic phospholipase A2 (cPLA2) antibody, rabbit anti-cPLA2 antibody, rabbit anti-ERK antibody, rabbit anti-p-ERK antibody, rabbit anti-p38 antibody or rabbit anti-p-p38 antibody and using anti-rabbit IgG-HRP conjugation antibody (Zymed) as secondary antibody. Positive control groups were treated with 1 μM SB203580 (A.G. Scientific, Inc.) as p38 inhibitor or 10 μM PD98059 (A.G. Scientific, Inc.) as MEK 1 inhibitor instead of homoisoflavanone."}, "BALB/c mouse": {"test_system": "BALB/c mouse", "assay": "Ear edema induced by arachidonic acid in animal model", "format": "in vivo", "conditions": "topical 1 μg/10 μL homoisoflavanone or 50 μg/10 μL dexamethasone 1 h before arachidonic acid 100 mg/mL 10 μL, 1 hour after AA, vs AA control (FIG. 5a, 5b)", "procedure": "Experiment was carried out as follows using BALB/c mouse. Test groups are as follows: non-treated group—treated not with arachidonic acid (AA) but only with acetone; control group (AA)-treated with arachidonic acid; test group A—treated with 1 μg/10 μL homoisoflavanone or 50 μg/10 μL dexamethasone as well as 100 mg/mL 10 μL arachidonic acid.\nOne hour before treating with arachidonic acid, 1 μg/10 μL homoisoflavanone or 50 μg/10 μL dexamethasone was applied on the front and rear parts of the ear, 5 μL each. Then, 1 hour after applying 100 mg/mL 10 μL arachidonic acid, ear thickness and weight were measured."}, "T cells": {"test_system": "T cells", "assay": "Mixed lymphocyte reaction (MLR), T cell proliferation (3H-thymidine)", "format": "cell-based, mouse", "conditions": "one-way MLR, BALB/C and C57B/C splenocytes, concentration-dependent (FIG. 9)", "procedure": "Mixed lymphocyte reaction (MLR) was carried out in order to investigate the inhibitory effect of homoisoflavanone against T cell proliferation. When mouse immune cells of different MHC classes are cultured as mixed with each other, the T cells recognize those of different MHC class as antigens and thus proliferate. One-way MLR was performed as follows. Following excision of spleens from BALB/C and C57B/C mice, the cells were individualized and red blood cells were lysed. After irradiation of 25 Gy γ-rays to BALB/C splenocytes to inactivate the BALB/C T cells, the BALB/C and C57B/C splenocytes (5×10^5 and 2×10^5 cells each) were mixed in a U-bottom 96-well plate. After treating with homoisoflavanone, the cells were incubated for 56 hours in an incubator of 5% CO2 and 37° C. Then, after further adding ^3[H]-thymidine (0.5) to each well, the cells were further incubated for 16 hours. Thereafter, the cells of each well were collected on filter paper and then put in a vial. After adding a scintillation solution (2 mL), counts per minute (CPM) was measured using a β-counter."}, "COX-2": {"test_system": "COX-2", "assay": "COX-2 expression induced by UV in human keratinocytes (Western blot)", "format": "cell-based", "conditions": "HaCaT cells, 1 μg/mL, UV 100 J/m^2, 16 hours, vs UV only (FIG. 2a)", "procedure": "In order to investigate the effect of homoisoflavanone on COX-2 expression induced by UV in human keratinocytes, HaCaT cells (5×10^5 cells) were inoculated on a 60-mm culture dish and cultured for 24 hours in DMEM containing 10% FBS.\nThen, the cells were starved by culturing for 24 hours in DMEM containing 1% FBS. Then, after treating with homoisoflavanone at 1 μg/mL for 1 hour, the cells were washed 3 times with PBS and irradiated with UV at 100 J/m^2 to induce COX-2 expression. Immediately after the UV radiation, the cells were washed again with PBS and further cultured for 16 hours in DMEM containing 1% FBS, while treating with homoisoflavanone at the same concentration.\nThereafter, Western blotting was performed as follows in order to measure the degree of COX-2 expression in the cultured cells. The cells of each group were lysed using RIPA buffer containing 2 mM EDTA, 137 mM NaCl, 20 mM Tris-HCl (pH, 8.0), 1 mM sodium vanadate, 10 mM NaF, 1 mM phenylmethanesulfonyl fluoride (PMSF), 1% Triton X-100, 10% glycerol and a protease inhibitor cocktail, and subjected to SDS-PAGE electrophoresis on 10% acrylamide gel to separate proteins, which were then transferred to a nylon membrane and separated using goat anti-COX-2 antibody (SantaCruz, USA) and anti-goat IgG-horse radish peroxidase (HRP) conjugation antibody (1:10000, Zymed) as secondary antibody. […]"}}}
{"compound": "COc1ccc(CC2COc3cc(O)cc(O)c3C2=O)cc1O", "note": "(centres unmarked) [homoisoflavanone]", "values": [{"measurement": "phosphorylation of cPLA2", "setting": "cPLA2", "value": "inhibited"}, {"measurement": "ear thickness", "setting": "BALB/c mouse", "value": "decrease"}, {"measurement": "ear weight", "setting": "BALB/c mouse", "value": "decrease"}, {"measurement": "concentrations at which proliferation of T cells was effectively inhibited", "setting": "T cells", "value": "≥ 0.25", "unit": "µg/mL"}, {"measurement": "COX-2 expression induced by UV", "setting": "COX-2", "value": "decreased"}]}
